In patent US9895363B2, “Methods for modulating function of proliferating cell nuclear antigen (PCNA) and treating cancer with PCNA-targeting compounds” (University of Cincinnati, priority 2010, dated 2018):

What was measured:
[1] = tested on: primary human mammary epithelial cells; assay: Growth inhibition, mammary epithelial cells; format: cell-based; conditions: Epithelial cell, normal cells, read-out: IC50 Values, Breast Epithelial Cells
Protocol: (§1) Growth inhibitory effects of PCNA-I1 and PCNA-I2 were assessed in human cancer cell lines, mouse cancer cell lines, immortalized mouse cell lines, and human primary cell lines. Specifically, growth inhibitory effects of PCNA-I1 and PCNA-I2 were assessed using MTT staining in the following cells lines: 1) human cancer cell lines including LNCaP (androgen receptor […]), 22Rv1, DU-145, LAPC-4, and PC-3 (androgen receptor […]) prostate cancer cells; MCF-7 and T47D breast cancer cells; A375 and MDA-MB435 melanoma cells; 2) mouse cancer cell lines including TRAMP-C2RE3 prostate cancer cells, B16 and K1735 melanoma cells, UV2237 fibrosarcoma cells, and CT-26 colon cancer cells; 3) immortalized mouse lung cell lines and mouse endothelial cell lines; and 4) primary human cell lines including umbilical endothelial cells (HUVEC, PromoCell, Heidelberg, Germany), primary bone marrow mesenchymal stem cells (HuMSC, PromoCell), primary human mammary epithelial cells (HuBrEC, Lonza, Walkersville, Md.), primary human prostate epithelial cells (HuPrEC, Lonza), and primary mouse spleen lymphocytes (isolated in this laboratory), and primary mouse bone marrow stromal cells (isolated in this laboratory). […]
(§2) IC50 values were derived from growth inhibition curves. […] Inhibition of cell growth was calculated using the formula: growth inhibition (%)=(1−A570 of treated/A570 of control)×100. […]

[2] = tested on: primary mouse bone marrow stromal cells; assay: Growth inhibition, mouse bone marrow stromal cells; format: cell-based; conditions: normal cells, read-out: IC50 Values, Bone Marrow Stroma Cells
Protocol: as §1, §2

PC-3 cells = assay: Cell growth after single 24 H pre-treatment (Alamar blue); format: cell-based, Human; conditions: 0.5 μM for 24 H, washed, Alamar blue up to 144 H; FIG. 1
Source text: The necessity of a continuous presence of PCNA-I1 for cell growth was also investigated.

GFP-PCNA = GFP-PCNA chromatin association, fluorescence microscopy; format: cell-based, Human; conditions: PC-3 transfected with pGFP-PCNA; 4 H, 0.5 μM PCNA-I1 or 2 μM PCNA-I2; FIG. 11
Protocol: Additionally, PC-3 cells were transfected for 24 H with pGFP-PCNA. The cells were then treated for 4 H with 0.5 μM of PCNA-I1 or 2 μM of PCNA-I2. The intact GFP-PCNA expressing cells were observed under a fluorescent microscope and recorded. After treatment with a buffer with 0.5% NP-40 buffer B, the cells were examined and recorded.

PCNA = target: T1, PCNA (Homo sapiens, UniProt P12004); assay: PCNA stability and degradation (immunoblot); format: cell-based; conditions: PC-3, 0.5 μM, up to 16 H, with or without CHX and MG132; FIG. 14
T1 construct: endogenous PCNA was knocked down with transfection of PCNA-specific siRNA; endogenous in cells; host or cells: PC-3
T1 sequence (P12004 whole entry): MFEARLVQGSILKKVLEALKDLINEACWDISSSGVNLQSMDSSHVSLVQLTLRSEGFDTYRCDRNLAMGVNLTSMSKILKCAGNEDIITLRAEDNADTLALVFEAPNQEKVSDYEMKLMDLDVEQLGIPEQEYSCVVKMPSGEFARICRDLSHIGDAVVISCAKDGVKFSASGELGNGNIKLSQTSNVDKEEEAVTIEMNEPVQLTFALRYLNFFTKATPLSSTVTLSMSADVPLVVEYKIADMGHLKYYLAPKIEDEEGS
Protocol: PCNA is a very stable protein with a half life of 20 H in replicating cells. The effect of PCNA-I1 on PCNA stability and degradation was investigated. Specifically, PC-3 cells were treated for various times up to 24 H with protein synthesis inhibitor cycloheximide (CHX) to block de novo protein synthesis. Cells were lyzed in buffer A as discussed above and analyzed by immunoblotting. Additionally, because PCNA is subject to ubiquitination regulation, the effect of PCNA-I1 on and deregulation of PCNA through the proteosome-mediated system was also investigated. Specifically, PC-3 cells were treated for 16 H with 0.5 μM PCNA-I1 in the absence or presence of 5 μg/mL of CHX and/or 10 μM of MG132, a well-documented proteosome inhibitor.

LNCaP cells = assay: DNA damage, apoptosis and cell cycle proteins by immunoblot, LNCaP; format: cell-based, Human
Protocol: Fluorescence-activated cell sorting (FACS) analysis was performed on both PC-3 cells and LNCaP cells using PCNA-I1. Specifically, cells were treated with 1 or 10 μM PCNA-I1 and sampled for the flow cytometry analysis at 24 H, 48 H, and 72 H. Expression of DNA damage and apoptosis-related proteins in PC-3 cells and LNCaP cells was also determined. Cisplatin, a well-known drug that induces DNA damage and apoptosis, was included in the experiment. LNCaP cells were treated for 6 H, 12 H, or 18 H with 10 μM PCNA-I1, 10 μM cisplatin, or both.
To further explore the differential effects of PCNA-I1 on LNCaP and PC-3 cells, the effects of PCNA-I1 and cisplatin on expression of cell cycle- and apoptosis-related proteins in the two cell lines were compared. LNCaP cells and PC-3 cells were treated with 1 μM PCNA-I1 and/or 5 μM cisplatin for 12 H, 18 H, or 24 H and cell lysates were sampled for immunoblotting.

Cc1ccsc1C(=O)N/N=C/c1ccc2ccccc2c1O [PCNA-I1]
IC50 [1]: 1670 nM
IC50 [2]: 1900 nM
Duration of growth inhibition after single one-day pre-treatment (PC-3 cells): sufficient to inhibit cell growth for up to seven days
Level of chromatin-associated GFP-PCNA (GFP-PCNA): reduced the level of chromatin-associated GFP-PCNA
Total intensity of GFP-PCNA (GFP-PCNA): did not significantly alter the total intensity of GFP-PCNA
PCNA degradation (PCNA): did not alter PCNA degradation
Expression of retinoblastoma (Rb) and cyclin D1 (LNCaP cells; LNCaP and PC-3, 1 μM PCNA-I1 and/or 5 μM cisplatin, 12-24 H): moderately downregulated expression of cell cycle-regulating proteins
Phosphorylation of p53, single agent (LNCaP cells; LNCaP, 10 μM): induced
Expression of p21 protein (LNCaP cells; LNCaP, 10 μM PCNA-I1 and/or 10 μM cisplatin): enhanced expression of p21 protein at 6 H and 12 H
PARP cleavage, single agent (LNCaP cells; LNCaP, 10 μM alone): induced PARP cleavage
DNA double strand break (γH2AX induction), single agent (LNCaP cells; LNCaP, 10 μM alone, 6-18 H, FIG. 17(A)): induced moderate double strand break (DSB) of DNA
